Source: PubChem BioAssay AID330 (DTP/NCI, 2004)
Values joined by “and” are separate entries in the source; they are usually repeats but may differ in a detail not shown here. Equal values may be shown once. Inconclusive results and toxic doses are left out. Rule for the calls: active = survival T/C of 150% or more; inactive = T/C below 125% in these data.

System: P388 leukemia ip, CD2F1 mice, survival T/C
Assay: NCI In Vivo Anticancer Drug Screen. Data for tumor model P388 Leukemia (intraperitoneal) in CD2F1 (CDF1) mice
Conditions: endpoint: median survival time, higher = longer survival
In short: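 Mice carrying the transplanted tumor received test compound or vehicle. Survival was recorded in each group, and the value is the treated-group measurement divided by that of the vehicle-treated control group.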

[1] = dose: 50.0 mg/kg/injection, schedule: Q01DX009 (ip), vehicle: saline
[2] = dose: 100.0 mg/kg/injection, schedule: Q01DX009 (ip), vehicle: saline
[3] = dose: 200.0 mg/kg/injection, schedule: Q01DX009 (ip), vehicle: saline
[4] = dose: 50.0 mg/kg/injection, schedule: Q01DX009 (ip), vehicle: saline with Tween-80
[5] = dose: 100.0 mg/kg/injection, schedule: Q01DX009 (ip), vehicle: saline with Tween-80
[6] = dose: 200.0 mg/kg/injection, schedule: Q01DX009 (ip), vehicle: saline with Tween-80
[7] = dose: 50.0 mg/kg/injection, schedule: Q01DX005 (ip), vehicle: Klucel (hydroxypropylcellulose) (HPC)
[8] = dose: 100.0 mg/kg/injection, schedule: Q01DX005 (ip), vehicle: Klucel (hydroxypropylcellulose) (HPC)
[9] = dose: 200.0 mg/kg/injection, schedule: Q01DX005 (ip), vehicle: Klucel (hydroxypropylcellulose) (HPC)
[10] = dose: 60.0 mg/kg/injection, schedule: Q01DX005 (ip), vehicle: saline with Tween-80
[11] = dose: 120.0 mg/kg/injection, schedule: Q01DX005 (ip), vehicle: saline with Tween-80
[12] = dose: 240.0 mg/kg/injection, schedule: Q01DX005 (ip), vehicle: saline with Tween-80
[13] = dose: 50.0 mg/kg/injection, schedule: Q01DX009 (ip), vehicle: Klucel (hydroxypropylcellulose) (HPC)
[14] = dose: 60.0 mg/kg/injection, schedule: Q01DX005 (ip), vehicle: Klucel (hydroxypropylcellulose) (HPC)
[15] = dose: 120.0 mg/kg/injection, schedule: Q01DX005 (ip), vehicle: Klucel (hydroxypropylcellulose) (HPC)
[16] = dose: 100.0 mg/kg/injection, schedule: Q01DX009 (ip), vehicle: Klucel (hydroxypropylcellulose) (HPC)

Measured: T/C

CCCC1CN2CCc3cc(OC)c(OC)cc3C2CC1=O (stereo unspecified)
inactive: [1] 100 % of control and 104 % of control | [2] 112 % of control and 115 % of control | [3] 120 % of control

COCCOC(=O)c1c(Cl)c(Cl)c(Cl)c(Cl)c1C(=O)O
inactive: [4] 96 % of control | [5] 96 % of control | [6] 101 % of control

O=C(Nc1ccc(Cl)cc1)Sc1nnc2c(n1)[nH]c1ccccc12
inactive: [7] 103 % of control | [8] 111 % of control | [9] 103 % of control

COC(=O)CCC1=C(C)c2cc3[nH]c(cc4[nH]c(cc5nc(cc1n2)C(CCC(=O)OC)=C5C)c(C#N)c4C)c(C#N)c3C
inactive: [7] 104 % of control | [8] 95 % of control | [9] 100 % of control

COC(=O)C12CN(C)CC(C(=O)OC)(C1=O)C(c1ccccc1)OC2c1ccccc1 (stereo unspecified)
inactive: [10] 107 % of control and 98 % of control | [11] 99 % of control | [12] 98 % of control and 90 % of control

C=C1CC2(CCC23CC(=C)C(=O)O3)OC1=O (stereo unspecified)
inactive: dose: 5.0 mg/kg/injection, schedule: Q01DX009 (ip), vehicle: Klucel (hydroxypropylcellulose) (HPC) 100 % of control | dose: 10.0 mg/kg/injection, schedule: Q01DX009 (ip), vehicle: Klucel (hydroxypropylcellulose) (HPC) 116 % of control | dose: 20.0 mg/kg/injection, schedule: Q01DX009 (ip), vehicle: Klucel (hydroxypropylcellulose) (HPC) 117 % of control

NNC(=O)c1ccc(Cl)cc1
inactive: dose: 25.0 mg/kg/injection, schedule: Q01DX009 (ip), vehicle: saline with Tween-80 91 % of control | [4] 96 % of control | [5] 96 % of control | [6] 86 % of control

CNC(=O)OCc1c(COC(=O)NC)c(C)n(-c2ccc3c(c2)OCO3)c1C
inactive: [13] 89 % of control

COc1ccc(C2=C(C#N)C(=C(C#N)C#N)NC(N)=C2C#N)cc1
inactive: [14] 105 % of control | [15] 91 % of control

Cc1ccc(S(=O)(=O)N(O)c2ccc(C)cc2C)cc1
inactive: dose: 50.0 mg/kg/injection, schedule: Q01DX005 (ip), vehicle: saline with Tween-80 112 % of control | dose: 100.0 mg/kg/injection, schedule: Q01DX005 (ip), vehicle: saline with Tween-80 107 % of control

CN(C)CCC(=O)c1ccc(Cl)c(Cl)c1
inactive: [13] 107 % of control | [1] 108 % of control | [16] 109 % of control | [2] 110 % of control | [3] 109 % of control

CC1(C)OC(=O)N=C1c1cccc(Cl)c1
inactive: [14] 102 % of control | [15] 101 % of control | dose: 240.0 mg/kg/injection, schedule: Q01DX005 (ip), vehicle: Klucel (hydroxypropylcellulose) (HPC) 117 % of control

COC(=O)NC1C(=O)OC2C1CC1OC12 (stereo unspecified)
inactive: [10] 101 % of control | [11] 100 % of control | [12] 101 % of control

Nn1c(-c2nn[nH]n2)nnc1-c1nn[nH]n1 (tested in a mixture with another compound)
inactive: dose: 50.0 mg/kg/injection, schedule: Q01DX001 (ip), vehicle: Klucel (hydroxypropylcellulose) (HPC) 109 % of control | dose: 100.0 mg/kg/injection, schedule: Q01DX001 (ip), vehicle: Klucel (hydroxypropylcellulose) (HPC) 107 % of control | dose: 200.0 mg/kg/injection, schedule: Q01DX001 (ip), vehicle: Klucel (hydroxypropylcellulose) (HPC) 103 % of control

CC(=O)Nc1ccc[nH]c1=O
inactive: dose: 25.0 mg/kg/injection, schedule: Q01DX009 (ip), vehicle: Klucel (hydroxypropylcellulose) (HPC) 108 % of control and 96 % of control | dose: 25.0 mg/kg/injection, schedule: Q01DX009 (ip), vehicle: saline 99 % of control and 110 % of control | [13] 99 % of control and 104 % of control | [1] 108 % of control and 92 % of control | [16] 99 % of control and 104 % of control | [2] 103 % of control and 117 % of control | dose: 200.0 mg/kg/injection, schedule: Q01DX009 (ip), vehicle: Klucel (hydroxypropylcellulose) (HPC) 101 % of control and 96 % of control | [3] 101 % of control and 103 % of control | dose: 400.0 mg/kg/injection, schedule: Q01DX009 (ip), vehicle: Klucel (hydroxypropylcellulose) (HPC) 109 % of control and 96 % of control | dose: 400.0 mg/kg/injection, schedule: Q01DX009 (ip), vehicle: saline 104 % of control and 108 % of control

COc1ccc(/C=C2\C(=O)C(c3ccccc3)N(c3ccccc3)C2=O)cc1 (stereo unspecified)
inactive: dose: 12.5 mg/kg/injection, schedule: Q04DX002 (ip), vehicle: saline with Tween-80 91 % of control | dose: 25.0 mg/kg/injection, schedule: Q04DX002 (ip), vehicle: saline with Tween-80 92 % of control | dose: 50.0 mg/kg/injection, schedule: Q04DX002 (ip), vehicle: saline with Tween-80 98 % of control

COc1cccc2c1C(=O)c1c(O)c3c(c(O)c1C2=O)CC1(O)CC3OC1(C)OC (stereo unspecified)
inactive: dose: 1.56 mg/kg/injection, schedule: Q01DX009 (ip), vehicle: other 104 % of control | dose: 3.13 mg/kg/injection, schedule: Q01DX009 (ip), vehicle: other 100 % of control | dose: 6.25 mg/kg/injection, schedule: Q01DX009 (ip), vehicle: other 96 % of control | dose: 12.5 mg/kg/injection, schedule: Q01DX009 (ip), vehicle: other 106 % of control | dose: 25.0 mg/kg/injection, schedule: Q01DX009 (ip), vehicle: other 106 % of control | dose: 25.0 mg/kg/injection, schedule: Q04DX003 (ip), vehicle: water 101 % of control | dose: 50.0 mg/kg/injection, schedule: Q04DX003 (ip), vehicle: water 100 % of control | dose: 100.0 mg/kg/injection, schedule: Q04DX003 (ip), vehicle: water 100 % of control | dose: 200.0 mg/kg/injection, schedule: Q04DX003 (ip), vehicle: water 103 % of control | dose: 400.0 mg/kg/injection, schedule: Q04DX003 (ip), vehicle: water 99 % of control

C=CC(=NC(C)(C)C)Nc1ccccc1C
inactive: dose: 0.79 mg/kg/injection, schedule: Q01DX009 (ip), vehicle: saline 99 % of control and 103 % of control and 90 % of control | dose: 1.56 mg/kg/injection, schedule: Q01DX009 (ip), vehicle: saline 101 % of control and 89 % of control | dose: 12.5 mg/kg/injection, schedule: Q01DX009 (ip), vehicle: saline 99 % of control

CCCCc1c(C#N)c(=O)n2c(N)c(C#N)cnc2c1SC
inactive: [10] 93 % of control | [11] 93 % of control | [12] 87 % of control

Oc1c(-c2ccccc2)cc(-[n+]2c(-c3ccccc3)cc(-c3ccccc3)cc2-c2ccccc2)cc1-c1ccccc1
inactive: dose: 0.38 mg/kg/injection, schedule: Q01DX009 (ip), vehicle: saline with Tween-80 88 % of control | dose: 0.75 mg/kg/injection, schedule: Q01DX009 (ip), vehicle: saline with Tween-80 106 % of control | dose: 1.5 mg/kg/injection, schedule: Q01DX009 (ip), vehicle: saline with Tween-80 121 % of control | dose: 3.0 mg/kg/injection, schedule: Q01DX009 (ip), vehicle: saline with Tween-80 122 % of control

COc1cc(C(c2cc3c(cc2O)OCO3)N2CCN(C(c3cc(OC)c(OC)c(OC)c3)c3cc4c(cc3O)OCO4)CC2)cc(OC)c1OC (stereo unspecified)
inactive: [10] 87 % of control | [11] 90 % of control | [12] 87 % of control

CNCC1CCCO1 (stereo unspecified)
inactive: dose: 25.0 mg/kg/injection, schedule: Q04DX003 (ip), vehicle: saline 100 % of control | dose: 50.0 mg/kg/injection, schedule: Q04DX003 (ip), vehicle: saline 100 % of control | dose: 100.0 mg/kg/injection, schedule: Q04DX003 (ip), vehicle: saline 100 % of control | dose: 200.0 mg/kg/injection, schedule: Q04DX003 (ip), vehicle: saline 99 % of control

N#CC(C(=O)CCCC(=O)Nc1ccccc1[N+](=O)[O-])c1ccc(Cl)cc1Cl (stereo unspecified)
inactive: [10] 106 % of control | [11] 104 % of control | [12] 101 % of control

O=S1(=O)CS/C(=N\C(=S)N(c2ccccc2)c2ccccc2)N1c1ccccc1
inactive: dose: 3.13 mg/kg/injection, schedule: Q04DX003 (ip), vehicle: saline with Tween-80 106 % of control | dose: 6.25 mg/kg/injection, schedule: Q04DX003 (ip), vehicle: saline with Tween-80 99 % of control | dose: 12.5 mg/kg/injection, schedule: Q04DX003 (ip), vehicle: saline with Tween-80 94 % of control and 95 % of control | dose: 50.0 mg/kg/injection, schedule: Q04DX003 (ip), vehicle: saline with Tween-80 86 % of control | dose: 200.0 mg/kg/injection, schedule: Q04DX003 (ip), vehicle: saline with Tween-80 93 % of control

Cc1ccccc1/C=N\N1C(=O)C(C)SC1c1ccccc1C (stereo unspecified)
inactive: [4] 91 % of control | [5] 93 % of control
